{"source": "paper PMC11456916", "about": "“A screen for cell envelope stress uncovers an inhibitor of prolipoprotein diacylglyceryl transferase, Lgt, in Escherichiacoli” (iScience, 2024)", "key": {"[1]": {"system": "S. Typhimurium SL1344", "assay": "MIC assay with or without SPR741, S. Typhimurium", "assay_type": "cell-based", "conditions": "Salmonella enterica", "description": "We next sought to determine whether we could achieve growth inhibition of wild-type E. coli using MAC-0452936 and an antibiotic adjuvant. […] To that end, we determined the MIC of MAC-0452936 against wild-type E. coli in the presence and absence of a sub-MIC concentration of SPR741 (Figure S8B). […] We leveraged this combination to characterize the spectrum of activity of MAC-0452936 against a panel of Gram-negative pathogens (Table 2). In the presence of 8 μg/mL SPR741, we observed MAC-0452936 activity against the clinical E. coli isolates C0244 and CFT073 at 2 μg/mL as well as against Salmonella Typhimurium SL1344 at 4 μg/mL.\nFor MIC assays, cultures of bacteria were grown in LB broth. Overnight cultures were diluted (1:100) into fresh LB media and grown to the mid-log phase of growth (OD600 ∼0.5). Subcultures were then normalized to an OD600 of 0.1, and diluted (1:5000) into assay media. Assay plates were then incubated for 18 h at 37°C, then OD600 was measured using a Biotek Neo plate reader."}, "[2]": {"target": "T1, prolipoprotein diacylglyceryl transferase, Lgt (Escherichia coli, UniProt P60955)", "T1 construct": "Expression, purification, and in vitro Lgt biochemical assay were conducted as described by Diao et al; made in house", "T1 sequence (P60955 whole entry)": "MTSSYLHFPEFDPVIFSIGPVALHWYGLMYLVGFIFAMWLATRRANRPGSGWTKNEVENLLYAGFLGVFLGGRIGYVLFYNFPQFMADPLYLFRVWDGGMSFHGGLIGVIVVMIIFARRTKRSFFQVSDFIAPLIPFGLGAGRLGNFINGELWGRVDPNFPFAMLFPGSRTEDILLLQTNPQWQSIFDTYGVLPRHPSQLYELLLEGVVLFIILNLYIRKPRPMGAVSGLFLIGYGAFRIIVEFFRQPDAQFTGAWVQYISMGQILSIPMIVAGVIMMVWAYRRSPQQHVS", "assay": "In vitro Lgt biochemical assay (phosphatidylglycerol and Pal-IAAC peptide substrates)", "design": "species or system E. coli", "source_text": "With both genetic and phenotypic evidence supporting MAC-0452936 inhibiting Lgt in E. coli, we next investigated whether MAC-0452936 could inhibit Lgt activity in vitro. Recently, a biochemical assay for Lgt activity was developed using phosphatidylglycerol and Pal-IAAC peptide as substrates.[12] […] As similar results were obtained using two different Lgt enzyme preparations, the inhibition observed by MAC-0452936 was not dependent on the preparation of the lipid matrix. Together, we present genetic, phenotypic, and biochemical evidence that MAC-0452936 inhibits the growth of E. coli through inhibition of Lgt. MAC-0452936 represents a previously undiscovered small molecule inhibitor of bacterial Lgt, and the oxime ester represents a promising chemical scaffold for antibiotic discovery.\nExpression, purification, and in vitro Lgt biochemical assay were conducted as described by Diao et al.[12]"}, "[3]": {"system": "E. coli ΔtolC-pore Δlpp", "assay": "MIC in lpp deletion background", "assay_type": "cell-based", "conditions": "E. coli ΔtolC-pore Δlpp versus E. coli ΔtolC-pore", "source_text": "We next turned to genetic approaches to confirm the mechanism of action of MAC-0452936. […] To that end, we screened the E. coli CRISPRi collection in the ΔtolC-pore genetic background with a sub-inhibitory concentration of MAC-0452936 and measured the fitness of all 356 CRISPRi mutants (Figure 4C and Data S4). […] Depletion of Lgt by CRISPRi provided supporting evidence that MAC-0452936 targeted Lgt in E. coli; however, we sought to confirm this observation using a parallel genetic approach. We hypothesized that MAC-0452936 potency would also be affected by high-copy expression of lgt. To that end, we introduced either an arabinose inducible copy of lgt supplied on the pCHAP9231 plasmid[48] or the pBAD19s plasmid as a control into E. coli ΔtolC-pore and tested the potency of MAC-0452936 (Figure 4E). Induction of lgt expression with arabinose suppressed the activity of MAC-0452936 by about 8-fold. […] To test this hypothesis, we constructed E. coli ΔlgtΔtolC-pore with pCHAP9231[48] so that lgt expression was driven solely by arabinose from the plasmid. […] To test this observation with MAC-0452936, we introduced an lpp deletion into our screening strain E. coli ΔtolC-pore and assessed the activity of our Lgt inhibitor in this mutant background. […]"}, "[4]": {"system": "human red blood cells", "assay": "Haemolysis assay", "assay_type": "cell-based", "conditions": "37°C, 1 h", "description": "To determine the haemolytic activity and cytotoxicity of MAC-0452936, pooled human blood and HEK293t cells were used, respectively. Fresh pooled human blood for haemolytic assay was acquired from […] Technologies, whilst, HEK293t cells were originally acquired from ATCC (Cat# CRL-3216) and were regularly grown in […] (DMEM) with 10% fetal bovine serum (FBS), L-glutamine and incubated at 37°C. Cell lines are regularly tested for mycoplasma contamination.\nHaemolytic activity of MAC-0452936 was assessed as described previously. Fresh human blood (10 mL, Stem Cell Technologies, USA) was centrifuged at 4,000 rpm for 10 min. The supernatant was discarded, and the pellet was rinsed three times with 1× PBS. Subsequently, the pellet was diluted 1:5 (v/v) in 1× PBS and RBC suspensions (0.5 mL each) were incubated with varying concentrations of test compounds at 37°C for 1 h. Following this, the cell suspensions were centrifuged at 5,000g for 10 min and the supernatant was meticulously collected without disturbing the pellet. Hemolysis was assessed by measuring the absorbance of the released hemoglobin in the supernatant at 540 nm using a spectrophotometer. Triton X-100 (0.1%) was used as the positive control causing 100 per cent hemolysis. All experiments were performed in triplicates."}}, "note": "Where two headings read alike, the source gives them in different places."}
{"smiles": "COc1ccc(C(=O)O/N=C(\\c2cccs2)C(C)(C)C)cc1", "note": "[MAC-0452936, (Z)-2-Pivaloylthiophene O-(4-methoxybenzoyl) oxime]", "values": [{"measurement": "MIC", "setting": "[1]; read-out: MIC, S. Typhimurium SL1344 + 0 μg/mL SPR741", "result": "> 64", "unit": "µg/mL"}, {"measurement": "MIC", "setting": "[1]; read-out: MIC, S. Typhimurium SL1344 + 8 μg/mL SPR741", "result": 4, "unit": "µg/mL"}, {"measurement": "IC50", "setting": "[2]; in vitro Lgt inhibition Amph-Lgt IC50, Lgt purified using amphipol lipid matrix", "result": 0.59, "unit": "µM"}, {"measurement": "IC50", "setting": "[2]; in vitro Lgt inhibition DDM-Lgt IC50, Lgt purified using DDM lipid matrix", "result": 1.45, "unit": "µM"}, {"measurement": "sensitization by deletion of lpp", "setting": "[3]", "result": 2, "unit": "fold"}, {"measurement": "hemolysis of human red blood cells", "setting": "[4]", "result": "did not observe hemolysis"}]}
